Target: T1, PR-A (Homo sapiens, UniProt P06401)
T1 construct: expressed in transfected cells
T1 sequence (P06401 1-769 isoform P06401-2): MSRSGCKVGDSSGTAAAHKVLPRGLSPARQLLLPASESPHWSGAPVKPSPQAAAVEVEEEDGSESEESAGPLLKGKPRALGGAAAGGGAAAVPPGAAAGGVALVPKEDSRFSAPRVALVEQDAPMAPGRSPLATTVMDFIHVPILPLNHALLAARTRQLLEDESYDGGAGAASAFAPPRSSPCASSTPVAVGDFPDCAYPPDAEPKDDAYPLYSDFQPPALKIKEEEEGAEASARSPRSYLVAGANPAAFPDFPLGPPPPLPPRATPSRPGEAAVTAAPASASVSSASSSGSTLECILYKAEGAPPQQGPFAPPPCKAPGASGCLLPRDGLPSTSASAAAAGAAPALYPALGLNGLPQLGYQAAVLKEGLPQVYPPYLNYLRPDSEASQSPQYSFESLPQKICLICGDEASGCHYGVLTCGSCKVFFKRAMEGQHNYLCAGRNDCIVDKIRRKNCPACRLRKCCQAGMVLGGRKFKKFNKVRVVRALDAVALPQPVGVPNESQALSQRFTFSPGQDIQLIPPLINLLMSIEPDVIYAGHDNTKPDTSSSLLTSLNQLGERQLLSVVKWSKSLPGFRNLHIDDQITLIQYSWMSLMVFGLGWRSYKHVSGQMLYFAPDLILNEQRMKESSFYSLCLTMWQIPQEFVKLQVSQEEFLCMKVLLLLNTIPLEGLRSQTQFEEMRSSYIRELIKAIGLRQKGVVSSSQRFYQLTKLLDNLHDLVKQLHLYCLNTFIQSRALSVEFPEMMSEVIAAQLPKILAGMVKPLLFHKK
Assay: Transcriptional assay: integrin alpha 6 promoter-luciferase in HeLa cells cotransfected with PR-A
Assay type: cell-based
Settings: 10 nM progesterone 24 hours

Transcription of the integrin alpha 6 promoter (luciferase): not regulated at all
Structure (SMILES): CC(=O)[C@H]1CC[C@H]2[C@@H]3CCC4=CC(=O)CC[C@]4(C)[C@H]3CC[C@]12C [progesterone]
